# ChEMBL document CHEMBL1144970, “Protective effects of steroid saponins from Paris polyphylla var. yunnanensis on ethanol- or indomethacin-induced gastric mucosal lesions in rats: structural requirement for activity and mode of action” (Bioorg Med Chem Lett, 2003)
# Legend:
# Rattus norvegicus [1] = experiment: Reduction in length (control value = 126+/-9.1) of gastric lesions induced by ethanol was measured, after administration of 2.5 mg/kg po in rats; assay type: functional, Stomach
# Rattus norvegicus [2] = experiment: Percent inhibition of gastric lesions induced by ethanol was measured, after administration of 5 mg/kg po in rats; assay type: functional; settings: Stomach
# Rattus norvegicus [3] = experiment: Percent inhibition of gastric lesions induced by ethanol was measured, after administration of 2.5 mg/kg po in rats; assay type: functional; settings: Stomach
# Rattus norvegicus [4] = experiment: Reduction in length ((control value = 126+/-9.1) of gastric lesions induced by ethanol was measured, after administration of 5 mg/kg po in rats; assay type: functional, Stomach
structure (smiles),measurement,setting,value
C[C@@H](CC[C@@]1(O)O[C@H]2C[C@H]3[C@@H]4CC=C5C[C@@H](O[C@@H]6O[C@H](CO)[C@@H](O)[C@H](O[C@@H]7O[C@H](CO)[C@@H](O)[C@H](O)[C@H]7O)[C@H]6O[C@@H]6O[C@@H](C)[C@H](O)[C@@H](O)[C@H]6O)CC[C@]5(C)[C@H]4CC[C@]3(C)[C@H]2[C@@H]1C)CO[C@@H]1O[C@H](CO)[C@@H](O)[C@H](O)[C@H]1O [PROTOGRACILLIN],Length,Rattus norvegicus [1],115 mm
same,inhibition in vivo at 5 mg/kg,Rattus norvegicus [2],14.1%
same,inhibition in vivo at 2.5 mg/kg,Rattus norvegicus [3],8.5%
same,Length,Rattus norvegicus [4],108 mm
